Results taken from publication PMC11488110 (Theranostics, 2024).

Legend:
Format in all cases: cell-based
primary mouse astrocytes = assay: Cytotoxicity assay (EZ-Cytox) in primary mouse astrocytes; details: up to 30 μM, 24 h
hPPARα = target: T1, hPPARα (Homo sapiens, UniProt Q07869); assay: In vitro co-transfection (PPRE-luciferase) assay in CV-1 cells, hPPARα; details: 24 h, read-out: Potency (EC50) hPPARα
T1 sequence (Q07869 1-468): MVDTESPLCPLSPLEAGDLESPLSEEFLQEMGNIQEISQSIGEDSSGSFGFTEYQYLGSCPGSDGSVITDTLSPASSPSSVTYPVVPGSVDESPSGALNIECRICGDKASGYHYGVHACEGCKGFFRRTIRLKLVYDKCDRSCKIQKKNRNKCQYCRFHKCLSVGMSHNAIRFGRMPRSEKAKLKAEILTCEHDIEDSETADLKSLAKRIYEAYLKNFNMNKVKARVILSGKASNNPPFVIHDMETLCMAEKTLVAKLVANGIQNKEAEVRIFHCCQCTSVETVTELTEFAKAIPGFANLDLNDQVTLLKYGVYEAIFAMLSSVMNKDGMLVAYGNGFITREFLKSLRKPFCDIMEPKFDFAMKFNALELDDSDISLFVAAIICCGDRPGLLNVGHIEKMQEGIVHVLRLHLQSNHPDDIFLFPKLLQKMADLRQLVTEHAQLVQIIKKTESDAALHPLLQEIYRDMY

hPPARδ = target: T2, hPPARδ (Homo sapiens, UniProt Q03181); assay: In vitro co-transfection (PPRE-luciferase) assay in CV-1 cells, hPPARδ
T2 construct: expressed in transfected cells; host or cells: CV-1 monkey kidney cells
T2 sequence (Q03181 1-441): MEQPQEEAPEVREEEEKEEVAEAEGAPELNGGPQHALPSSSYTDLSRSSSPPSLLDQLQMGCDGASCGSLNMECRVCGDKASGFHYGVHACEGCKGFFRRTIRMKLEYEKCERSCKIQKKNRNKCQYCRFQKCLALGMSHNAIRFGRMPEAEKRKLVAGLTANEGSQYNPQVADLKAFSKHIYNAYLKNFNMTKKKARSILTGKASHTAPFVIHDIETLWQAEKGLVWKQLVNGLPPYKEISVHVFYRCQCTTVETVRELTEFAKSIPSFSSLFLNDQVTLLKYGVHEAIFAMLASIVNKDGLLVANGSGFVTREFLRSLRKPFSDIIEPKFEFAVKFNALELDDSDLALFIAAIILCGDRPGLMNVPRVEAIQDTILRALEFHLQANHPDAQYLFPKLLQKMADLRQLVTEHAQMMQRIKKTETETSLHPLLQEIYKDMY

hPPARγ = target: T3, hPPARγ (Homo sapiens, UniProt P37231); assay: In vitro co-transfection (PPRE-luciferase) assay in CV-1 cells, hPPARγ; details: 24 h, read-out: Potency (EC50) hPPARγ
T3 sequence (P37231 1-505): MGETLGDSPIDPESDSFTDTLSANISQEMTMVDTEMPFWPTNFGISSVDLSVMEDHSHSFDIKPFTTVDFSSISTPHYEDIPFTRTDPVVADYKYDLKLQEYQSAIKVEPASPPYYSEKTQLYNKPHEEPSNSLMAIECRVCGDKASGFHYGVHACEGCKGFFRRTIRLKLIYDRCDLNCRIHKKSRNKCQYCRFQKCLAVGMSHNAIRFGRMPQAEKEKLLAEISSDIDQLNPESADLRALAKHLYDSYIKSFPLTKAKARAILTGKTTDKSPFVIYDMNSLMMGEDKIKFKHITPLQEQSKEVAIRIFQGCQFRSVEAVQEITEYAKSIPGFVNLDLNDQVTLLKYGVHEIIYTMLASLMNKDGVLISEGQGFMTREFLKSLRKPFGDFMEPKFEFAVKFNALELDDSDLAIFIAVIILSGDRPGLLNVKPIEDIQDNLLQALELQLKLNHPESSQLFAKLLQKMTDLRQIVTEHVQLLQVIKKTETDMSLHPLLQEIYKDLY

| SMILES | Cytotoxicity in primary astrocytes (primary mouse astrocytes) | EC50 (hPPARα) | EC50 (hPPARδ; co-transfection assay, CV-1 cells, 24 h, read-out: Potency (EC50) hPPARδ) | Selectivity index hPPARα/hPPARδ (hPPARδ; ratio EC50(hPPARα)/EC50(hPPARδ)) | Selectivity index hPPARγ/hPPARδ (hPPARδ; ratio EC50(hPPARγ)/EC50(hPPARδ)) | EC50 (hPPARγ) |
| --- | --- | --- | --- | --- | --- | --- |
| Cc1cc(SCc2sc(-c3ccc(C(F)(F)F)cc3)nc2C)ccc1OCC(=O)O [GW501516, reference compound] | no cytotoxicity | – | – | – | – | – |
| Cc1cc([Se]Cc2[se]c(-c3ccc(C(F)(F)F)cc3)nc2C)ccc1OCC(=O)O [Compound 5b, {2-Methyl-4-[4-methyl-2-(4-trifluoromethyl-phenyl)-selenazol-5-yl-methylselanyl]-phenoxy}-acetic acid] | – | > 10 µM | 0.0043 µM | >2300 | >2300 | > 10 µM |
